Results taken from patent publication US12686657B2, “Anti-inflammatory carboxamide derivatives” (BIOMEDCODE HELLAS SA, priority 2021, dated 2026).
Where two headings read alike, the source gives them in different places.

Test system: hTNF-activated wt SFs
Assay: CCL5 and CCL20 ELISA on hTNF-activated wild type synovial fibroblasts
Type: cell-based, mice
Source text: Primary SFs were derived from a) human TNF transgenic (hTNFTg) mice (Keffer et al., 1991) as well as from b) CBA/C57BL6 wild type mice.
By testing the compounds in a) and b) we accessed their effect on the activated SFs phenotype caused by both the endogenous hTNF upregulation and the exogenous hTNF administration. In this way it was confirm the ability of the compounds of the invention to act in the TNF pathway directly downstream of TNF.
SFs were isolated as previously described by Armaka et al., 2009, from the ankle joints of hTNFtg or CBA/C57BL6 wild type (wt) littermates. Briefly, ankle joints were digested with Collagenase IV (Sigma Aldrich, C5138) for 45 minutes at a 37° C. shaking waterbath and after 5 days in culture at 37° C. and 5% CO2, a depletion of CD45+ lineage cells was performed using a Biotin anti-mouse CD45 Antibody (Biolegend, 103104) and Dynabeads™ Biotin Binder (ThermoFisher 11047), according to the manufacturer's protocol. After 10 days in culture, SFs were seeded overnight (O/N) at a concentration of 2×10^4 cells/well in a 96 well plate in 1×DMEM, supplemented with 100 U/ml Penicillin Streptomycin (P/S) and 10% Fetal Bovine Serum (FBS). The next day the cells were synchronized by starvation that included their O/N plating in low serum medium (0.5% FBS). Following the O/N starvation, the hTNFg and the WT SFs were treated with different concentrations of the experimental compounds. The SFs were at the same time activated with 10 ng/ml hTNF (Peprotech, 300-01A). 48 h following the treatment the cell culture supernatants were collected and analyzed by ELISA (R&S Systems, Duoset, DY478 and DY760) according to the manufacturer's protocol, for the detection of CCL5/Rantes and CCL20/Mip3, two known inflammatory chemokines. The IC50 values were determined as the concentration of the compounds required to reduce the levels of secreted CCL5 and CCL20 by 50%.
In order to determine the efficiency of the compounds of the invention, the same protocol was repeated with some minor modifications. Mainly, the concentration of hTNF was 10-fold reduced, i.e., adjusted to 1 ng/ml, and the SFs were seeded overnight at a concentration of 10^4 cells/well.
Table 7 summarizes the reduction of CCL5 and CCL20 levels achieved with the test compounds of the invention. Data are presented as percentages of the chemokine levels detected in treated cells compared to 100% levels of the chemokines detected in the untreated cells.
Table 8 summarizes the values of IC50 and toxicity for the test compounds of the invention. Dose response curves regarding the WT SFs were produced with 10 ng/ml hTNF stimulation for all compounds, with the exception of the compounds E and F, where WT cells were induced using hTNF at 1 ng/ml: […]

[1] = 1 ng/mL hTNF, compound 10 μM, 48 h
[2] = 1 ng/mL hTNF, compound 25 μM, 48 h
[3] = 10 ng/mL hTNF, compound 10 μM, 48 h
[4] = 10 ng/mL hTNF, compound 25 μM, 48 h
[5] = Mus musculus, Fibroblast, hTNF at 1 ng/ml, read-out: IC50 (μM) CCL5 WT
[6] = Mus musculus, Fibroblast, hTNF at 1 ng/ml, read-out: IC50 (μM) CCL20 WT
[7] = 1 ng/mL hTNF, compound 50 μM, 48 h
[8] = 10 ng/mL hTNF, compound 50 μM, 48 h
[9] = Mus musculus, Fibroblast, 10 ng/ml hTNF stimulation, read-out: IC50 (μM) CCL5 WT
[10] = Mus musculus, Fibroblast, 10 ng/ml hTNF stimulation, read-out: IC50 (μM) CCL20 WT

SMILES	CCL5 WT, percentage of level in untreated cells [1] [%]	CCL5 WT, percentage of level in untreated cells [2] [%]	CCL20 WT, percentage of level in untreated cells [2] [%]	CCL5 WT, percentage of level in untreated cells [3] [%]	CCL5 WT, percentage of level in untreated cells [4] [%]	CCL20 WT, percentage of level in untreated cells [4] [%]	IC50 [5] [µM]	IC50 [6] [µM]	CCL20 WT, percentage of level in untreated cells [1] [%]	CCL20 WT, percentage of level in untreated cells [3] [%]	CCL5 WT, percentage of level in untreated cells [7] [%]	CCL5 WT, percentage of level in untreated cells [8] [%]	activity at 50 µM (Mus musculus, Fibroblast, 48 h, 1 ng/mL hTNF, compound 50 μM, 48 h, read-out: CCL20 WT, percentage of level in untreated cells) [%]	IC50 [9] [µM]	IC50 [10] [µM]	CCL20 WT, percentage of level in untreated cells [7] [%]	CCL20 WT, percentage of level in untreated cells [8] [%]
COc1cc(N)c(Cl)cc1C(=O)NCC1(Nc2cccc(OC(F)(F)F)c2)CCCCCC1 [F, 4-amino-5-chloro-2-methoxy-N-((1-((3-(trifluoromethoxy)phenyl)amino)cycloheptyl)methyl)benzamide]	0	0	7	12	9	10	0.09	0.129	–	–	–	–	–	–	–	–	–
COc1cc(N)c(Cl)cc1C(=O)NCC1(Nc2ccc(F)cc2Cl)CCCCCC1 [E, 4-amino-5-chloro-N-((1-((2-chloro-4-fluorophenyl)amino)cycloheptyl)methyl)-2-methoxybenzamide]	0	0	3	13	11	2	0.59	0.167	2	5	–	–	–	–	–	–	–
COc1cc(N)c(Cl)cc1C(=O)NCC1(c2ccc(Cl)cc2)CCCCCC1 [Compound 52, 4-amino-5-chloro-N-((1-(4-chlorophenyl)cycloheptyl)methyl)-2-methoxybenzamide]	48	–	–	27	–	–	–	–	45	15	22	14	17	1.4	1.5	–	–
COc1cc(N)c(Cl)cc1C(=O)NCC1(c2ccc(Cl)cc2)CCCCC1 [Compound 51, 4-amino-5-chloro-N-((1-(4-chlorophenyl)cyclohexyl)methyl)-2-methoxybenzamide]	54	–	–	67	–	–	–	–	63	14	20	39	–	10.4	3	35	5
COc1cc(N)c(Cl)cc1C(=O)NCC1(Nc2ccc(Cl)cc2)CCCCCC1 [Compound 53, 4-amino-5-chloro-N-((1-((4-chlorophenyl)amino)cycloheptyl)methyl)-2-methoxybenzamide]	16	–	–	35	–	–	–	–	26	15	8	26	–	2.9	2.3	9	8
